Laboratory results from patent publication US20110319392A1, “Thiazole Sulfonamide And Oxazole Sulfonamide Kinase Inhibitors” (priority 2009, published 2011).
Structures can show the parent of a compound that is named as a salt.

Columns and labels:
ErbB2 = target: T1, ErbB2 (Homo sapiens, UniProt P04626); experiment: ErbB-2 substrate phosphorylation assay (HTRF); type: biochemical
T1 construct: made in house; host or cells: baculovirus expression system
Procedure, shortened: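 Baculovirus-expressed EGFR (0.8 nM) or ErbB2 (10 nM) in enzyme mix, preincubated 1 h at 20 °C with compound (0.00027–47.6 μM final), then 90 min at 20 °C with substrate mix of 20 μM ATP, 0.8 uM biotinylated Peptide C, MnCl2, MOPS pH 7.5. Phosphotyrosine by HTRF; pIC50 reported.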

HT-29 tumor cells = experiment: Cell growth inhibition assay (CellTiter-Glo), HT-29; type: cell-based, Human; conditions: Homo sapiens
Procedure: (§1) Human breast tumor cells (BT474) were cultured in RPMI (Mediatech […]), containing 10% FBS (JRH Biosciences 12176) and 1% penicillin-streptomycin (Invitrogen 15140). Human head and neck tumor cells (HN5) were cultured in high glucose DMEM (Mediatech 50-013-PB) containing 10% FBS and 1% penicillin-streptomycin. Human colon tumor cells (Colo205) were cultured in RPMI (Mediatech 50-020-PB) containing 10% FBS and 1% penicillin-streptomycin. Human melanoma cancer cells (SK-MEL-28) were cultured in EMEM with nonessential amino acids (Mediatech 50-011-PB) containing 10% FBS, 1% sodium pyruvate (JT Baker 3354-04), and 1% penicillin-streptomycin. Human melanoma cancer cells (A375P F11s) were cultured in RPMI (Mediatech 50-020-PB) containing 10% FBS, 1% sodium pyruvate, and 1% penicillin-streptomycin. Human colon cancer cells (HT-29) were cultured in high glucose DMEM (Mediatech 50-013-PB) containing 10% FBS and 1% penicillin-streptomycin. Human melanoma cancer cells (SK-MEL-3) were cultured in McCoy's 5A (50-025-PB) containing 15% FBS, and 1% penicillin-streptomycin. All cell lines were maintained at 37° C. in a humidified 5% CO2, 95% air incubator. Cells were harvested using trypsin/EDTA (Invitrogen 25200), counted using a haemocytometer, and plated. For 96-well assays (using white full-area NUNC plates cat. #136102), cells were plated in 105 μL at the following densities (cells/well): HNS, 500; Colo 205, 500; SK-MEL-28, 500; A375P F11s, 500; HT-29, 500; SK-MEL-3, 500; and BT474, 3000. For 384-well assays (white full-area NUNC plates, cat. #781080), cells were plated in 48 μL at the following densities (cells/well): HNS, 500; Colo205, 500; SK-MEL-28, 500; A375P F11s, 500; HT-29, 500; SK-MEL-3, 500; and BT474, 2000.
(§2) The next day, compounds were diluted as follow: For 96-well assays, 13.5 μL of compound in DMSO were diluted using nine (9) serial 1:3 dilutions of 4.5 μL in 9 of DMSO. Medium (270 μL/well of RPMI with 10% FBS and 1% penicillin-streptomycin) was added to the plates. Aliquots (7 μL) were added to cells in the final assay giving a final DMSO concentration of 0.2%. For 384-well assays, 15 μL of compound in DMSO were diluted using nine (9) serial 1:3 dilutions of 5 μL in 10 μL of DMSO, followed by a further dilution of 5 μL of compound with 95 μL of medium, of which 2 μL were added to cells in the final assay giving a final DMSO concentration of 0.2%. Cells were incubated at 37° C., 5% CO2 for 3 days.
(§3) Total ATP was measured (as a surrogate estimate of cell number) using CellTiter-Glo® reagent (Promega G7571). Briefly, plates were removed from the incubator and allowed to equilibrate to room temperature for 30 minutes. CellTiter-Glo® (25 μL or 55 μL for 384-well or 96-well assays, respectively) reagent was added to each well and plates were shaken on an orbital plate shaker for 2 minutes. Plates were incubated without shaking for a further 30 minutes and read on an LJL Analyst GT reader in luminometer mode with an integration time of 0.5 seconds per well. Percent inhibition of cell growth was calculated relative to DMSO vehicle-treated control wells. Concentration of compound required to give 50% inhibition of vehicle-treated control cell growth (IC50) was interpolated using a 4-parameter fit for determining IC50 using the following equation: Y=A +((B−A)/(1+((C/X)̂D))) where […].

SK-MEL-28 tumor cells = experiment: Cell growth inhibition assay (CellTiter-Glo), SK-MEL-28; type: cell-based, Human; conditions: Homo sapiens, SK-MEL-28, 72 h; 3 days incubation
Procedure, shortened: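 Cells plated at 500 cells/well in their growth media, dosed next day with nine-step 1:3 compound dilutions (final DMSO 0.2%), then incubated 3 days at 37° C, 5% CO2. Total ATP read by CellTiter-Glo luminescence as a surrogate for cell number; IC50 interpolated from 4-parameter fit versus DMSO controls.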

SK-MEL-3 tumor cells = experiment: Cell growth inhibition assay (CellTiter-Glo), SK-MEL-3; type: cell-based, Human; conditions: for IC50: Homo sapiens, SK-MEL3
Procedure: as §1, §2, §3

T1 sequence (P04626 23-1255): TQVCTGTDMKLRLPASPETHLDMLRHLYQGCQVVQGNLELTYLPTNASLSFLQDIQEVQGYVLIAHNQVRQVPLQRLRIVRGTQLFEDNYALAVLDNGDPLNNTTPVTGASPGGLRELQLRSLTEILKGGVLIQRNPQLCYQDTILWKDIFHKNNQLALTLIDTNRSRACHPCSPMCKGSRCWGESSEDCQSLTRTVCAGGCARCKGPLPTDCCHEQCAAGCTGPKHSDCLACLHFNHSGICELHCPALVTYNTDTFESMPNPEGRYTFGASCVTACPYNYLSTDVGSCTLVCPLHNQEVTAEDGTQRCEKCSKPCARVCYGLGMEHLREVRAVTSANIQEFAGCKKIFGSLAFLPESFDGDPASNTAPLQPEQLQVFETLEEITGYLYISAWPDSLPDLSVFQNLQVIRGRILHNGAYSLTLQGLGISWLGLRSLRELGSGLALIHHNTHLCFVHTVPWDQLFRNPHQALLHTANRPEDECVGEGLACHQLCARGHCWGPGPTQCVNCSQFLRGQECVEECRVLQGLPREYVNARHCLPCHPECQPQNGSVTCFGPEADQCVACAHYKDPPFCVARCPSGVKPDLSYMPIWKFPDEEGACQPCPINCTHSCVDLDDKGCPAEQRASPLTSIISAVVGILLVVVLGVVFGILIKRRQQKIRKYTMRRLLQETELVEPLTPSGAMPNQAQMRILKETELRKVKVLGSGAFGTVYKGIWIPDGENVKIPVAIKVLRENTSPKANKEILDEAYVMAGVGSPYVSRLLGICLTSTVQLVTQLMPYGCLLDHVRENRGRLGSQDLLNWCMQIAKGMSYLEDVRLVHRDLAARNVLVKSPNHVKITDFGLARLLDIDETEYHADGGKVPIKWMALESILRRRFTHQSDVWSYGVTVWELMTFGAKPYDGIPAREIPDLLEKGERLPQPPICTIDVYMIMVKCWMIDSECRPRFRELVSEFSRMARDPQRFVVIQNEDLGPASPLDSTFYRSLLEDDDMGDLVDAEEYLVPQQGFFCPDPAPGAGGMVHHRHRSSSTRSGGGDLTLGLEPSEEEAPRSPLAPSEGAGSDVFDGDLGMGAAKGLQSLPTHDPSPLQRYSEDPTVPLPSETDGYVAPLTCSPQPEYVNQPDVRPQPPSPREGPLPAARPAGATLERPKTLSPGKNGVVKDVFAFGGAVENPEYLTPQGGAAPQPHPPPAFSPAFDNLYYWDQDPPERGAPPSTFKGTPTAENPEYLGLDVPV

`COc1cc(N2CCC(N3CCN(CCS(C)(=O)=O)CC3)CC2)ccc1Nc1nccc(-c2sc(C(C)C)nc2-c2cccc(NS(=O)(=O)c3c(F)cccc3F)c2)n1` [Example 20, 2,6-Difluoro-N-{3-[2-(1-methylethyl)-5-(2-{[2-(methyloxy)-4-(4-{4-[2-(methylsulfonyl)ethyl]-1-piperazinyl}-1-piperidinyl)phenyl]amino}-4-pyrimidinyl)-1,3-thiazol-4-yl]phenyl}benzenesulfonamide] showed an IC50 (ErbB2) of under 100 nM, an IC50 (HT-29 tumor cells) of over 1000 nM and an IC50 (SK-MEL-28 tumor cells) of under 100 nM. The IC50 (SK-MEL-3 tumor cells) was 100 to 1000 nM.
Work on `O=S(=O)(Nc1cccc(-c2nc(N3CCCC3)sc2-c2ccnc(Nc3ccc(N4CCN(CCF)CC4)c(F)c3)n2)c1)c1c(F)cccc1F` [Example 21, 2,6-Difluoro-N-{3-[5-[2-({3-fluoro-4-[4-(2-fluoroethyl)-1-piperazinyl]phenyl}amino)-4-pyrimidinyl]-2-(1-pyrrolidinyl)-1,3-thiazol-4-yl]phenyl}benzenesulfonamide] yielded an IC50 (ErbB2) of under 100 nM, an IC50 (HT-29 tumor cells) of under 100 nM and an IC50 (SK-MEL-28 tumor cells) of under 100 nM. The IC50 (SK-MEL-3 tumor cells) was under 100 nM.
`CC(C)c1nc(-c2ccc(F)c(NS(=O)(=O)c3ccccc3F)c2)c(-c2ccnc(Nc3ccc(N4CCN(CCS(C)(=O)=O)CC4)c(F)c3)n2)s1` [Example 22, 2-Fluoro-N-{2-fluoro-5-[5-{2-[(3-fluoro-4-}4-[2-(methylsulfonyl)ethyl]-1-piperazinyl}phenyl)amino]-4-pyrimidinyl}-2-(1-methylethyl)-1,3-thiazol-4-yl]phenyl}benzenesulfonamide hydrochloride] showed an IC50 (ErbB2) of under 100 nM, an IC50 (HT-29 tumor cells) of 100 to 1000 nM and an IC50 (SK-MEL-28 tumor cells) of under 100 nM. It also gave an IC50 (SK-MEL-3 tumor cells) of 100 to 1000 nM.
For `CC(C)c1nc(-c2ccc(F)c(NS(=O)(=O)c3c(F)cccc3F)c2)c(-c2ccnc(Nc3ccc(N4CCOCC4)nc3)n2)s1` [Example 23, 2,6-Difluoro-N-{2-fluoro-5-[2-(1-methylethyl)-5-(2-{[6-(4-morpholinyl)-3-pyridinyl]amino}-4-pyrimidinyl)-1,3-thiazol-4-yl]phenyl}benzenesulfonamide], the IC50 (ErbB2) was 100 to 1000 nM, the IC50 (HT-29 tumor cells) was under 100 nM and the IC50 (SK-MEL-28 tumor cells) was under 100 nM. For the same compound, the IC50 (SK-MEL-3 tumor cells) was under 100 nM.
For `CC(C)c1nc(-c2ccc(F)c(NS(=O)(=O)c3c(F)cccc3F)c2)c(-c2ccnc(Nc3ccc(N4CCC(C#N)CC4)nc3)n2)s1` [Example 24, N-{5-[5-(2-{[6-(4-Cyano-1-piperidinyl)-3-pyridinyl]amino}-4-pyrimidinyl)-2-(1-methylethyl)-1,3-thiazol-4-yl]-2-fluorophenyl}-2,6-difluorobenzenesulfonamide], the IC50 (ErbB2) was 100 to 1000 nM, the IC50 (HT-29 tumor cells) was under 100 nM and the IC50 (SK-MEL-28 tumor cells) was under 100 nM. For the same compound, the IC50 (SK-MEL-3 tumor cells) was 100 to 1000 nM.
Compound `CC(C)c1nc(-c2ccc(F)c(NS(=O)(=O)c3c(F)cccc3F)c2)c(-c2ccnc(Nc3ccc(N4CCN(CCF)CC4)c(F)c3)n2)s1` [Example 25] has an IC50 (ErbB2) of under 100 nM, an IC50 (HT-29 tumor cells) of 100 to 1000 nM and an IC50 (SK-MEL-28 tumor cells) of 100 to 1000 nM. The IC50 (SK-MEL-3 tumor cells) was 100 to 1000 nM.
Work on `O=S(=O)(Nc1cc(-c2nc(N3CCCC3)sc2-c2ccnc(Nc3ccc(N4CCOCC4)nc3)n2)ccc1F)c1c(F)cccc1F` [Example 26, 2,6-Difluoro-N-{2-fluoro-5-[5-(2-{(6-(4-morpholinyl)-3-pyridinyl]amino}-4-pyrimidinyl)-2-(1-pyrrolidinyl)-1,3-thiazol-4-yl]phenyl}benzenesulfonamide] yielded an IC50 (ErbB2) of 100 to 1000 nM, an IC50 (HT-29 tumor cells) of over 1000 nM and an IC50 (SK-MEL-28 tumor cells) of under 100 nM. It also gave an IC50 (SK-MEL-3 tumor cells) of 100 to 1000 nM.
`CN(C)c1nc(-c2ccc(F)c(NS(=O)(=O)c3c(F)cccc3F)c2)c(-c2ccnc(Nc3ccc(N4CCOCC4)nc3)n2)s1` [Example 27, N-{5-[2-(Dimethylamino)-5-(2-{[6-(4-morpholinyl)-3-pyridinyl]amino}-4-pyrimidinyl)-1,3-thiazol-4-yl]-2-fluorophenyl}-2,6-difluorobenzenesulfonamide] showed an IC50 (ErbB2) of 100 to 1000 nM, an IC50 (HT-29 tumor cells) of 100 to 1000 nM and an IC50 (SK-MEL-28 tumor cells) of 100 to 1000 nM. The IC50 (SK-MEL-3 tumor cells) was under 100 nM.
`CC(C)(C)c1nc(-c2ccc(F)c(NS(=O)(=O)c3c(F)cccc3F)c2)c(-c2ccnc(Nc3ccc(N4CCOCC4)nc3)n2)s1` [Example 28, N-{5-[2-(1,1-Dimethylethyl)-5-(2-{[[6-(4-morpholinyl)-3-pyridinyl]amino}-4-pyrimidinyl)-1,3-thiazol-4-yl]-2-fluorophenyl]-2,6-difluorobenzenesulfonamide hydrochloride] showed an IC50 (ErbB2) of 100 to 1000 nM, an IC50 (HT-29 tumor cells) of 100 to 1000 nM and an IC50 (SK-MEL-28 tumor cells) of under 100 nM. It also gave an IC50 (SK-MEL-3 tumor cells) of under 100 nM.
Work on `CC(C)c1nc(-c2cccc(NS(=O)(=O)c3c(F)cccc3F)c2F)c(-c2ccnc(Nc3ccc(N4CCN(CCF)CC4)c(F)c3)n2)s1` [Example 29, 2,6-Difluoro-N-{2-fluoro-3-[5-[2-({3-fluoro-4-[4-(2-fluoroethyl)-1-piperazinyl]phenyl}amino)-4-pyrimidinyl]-2-(1-methylethyl)-1,3-thiazol-4-yl]phenyl}benzenesulfonamide] yielded an IC50 (ErbB2) of 100 to 1000 nM, an IC50 (HT-29 tumor cells) of 100 to 1000 nM and an IC50 (SK-MEL-28 tumor cells) of under 100 nM. For the same compound, the IC50 (SK-MEL-3 tumor cells) was under 100 nM.
`CC(C)c1nc(-c2cccc(NS(=O)(=O)c3c(F)cccc3F)c2F)c(-c2ccnc(Nc3cnc(N4CCOCC4)c(F)c3)n2)s1` [Example 30, 2,6-Difluoro-N-{2-fluoro-3-[5-(2-{[5-fluoro-6-(4-morpholinyl)-3-pyridinyl]amino}-4-pyrimidinyl)-2-(1-methylethyl)-1,3-thiazol-4-yl]phenyl}benzenesulfonamide] was tested, and the IC50 (ErbB2) was over 1000 nM, the IC50 (HT-29 tumor cells) was 100 to 1000 nM and the IC50 (SK-MEL-28 tumor cells) was under 100 nM. It also gave an IC50 (SK-MEL-3 tumor cells) of under 100 nM.
In the case of `CC(C)c1nc(-c2cc(F)c(F)c(NS(=O)(=O)c3cccc(F)c3)c2)c(-c2ccnc(Nc3cnc(N4CCOCC4)c(F)c3)n2)s1` [Example 31, N-{2,3-Difluoro-5-[5-(2-{[5-fluoro-6-(4-morpholinyl)-3-pyridinyl]amino}-4-pyrimidinyl)-2-(1-methylethyl)-1,3-thiazol-4-yl]phenyl}-3-fluorobenzenesulfonamide], the IC50 (ErbB2) is reported as over 1000 nM, the IC50 (HT-29 tumor cells) is reported as under 100 nM and the IC50 (SK-MEL-28 tumor cells) is reported as 100 to 1000 nM. The IC50 (SK-MEL-3 tumor cells) was 100 to 1000 nM.
`CC(C)c1nc(-c2ccnc(NS(=O)(=O)c3c(F)cccc3F)c2)c(-c2ccnc(Nc3ccc(N4CCOCC4)nc3)n2)s1` [Example 32, 2,6-Difluoro-N-{4-[2-(1-methylethyl)-5-(2-{[6-(4-morpholinyl}-3-pyridinyl]amino}-4-pyrimidinyl)-1,3-thiazol-4-yl]-2-pyridinyl}benzenesulfonamide] showed an IC50 (ErbB2) of over 1000 nM, an IC50 (HT-29 tumor cells) of over 1000 nM and an IC50 (SK-MEL-28 tumor cells) of under 100 nM. It also gave an IC50 (SK-MEL-3 tumor cells) of under 100 nM.
`CC(C)c1nc(-c2ccnc(NS(=O)(=O)c3c(F)cccc3F)c2)c(-c2ccnc(Nc3cnc(N4CCOCC4)c(F)c3)n2)s1` [Example 33] was tested, and the IC50 (ErbB2) was over 1000 nM, the IC50 (HT-29 tumor cells) was 100 to 1000 nM and the IC50 (SK-MEL-28 tumor cells) was under 100 nM. It also gave an IC50 (SK-MEL-3 tumor cells) of under 100 nM.
With `CCc1nc(-c2cccc(CNS(=O)(=O)c3ccccc3)c2)c(-c2ccnc(Nc3ccc(N4CCOCC4)c(F)c3)n2)s1` [Example 34] the IC50 (ErbB2) was 100 to 1000 nM, the IC50 (HT-29 tumor cells) was over 1000 nM and the IC50 (SK-MEL-28 tumor cells) was 100 to 1000 nM. For the same compound, the “Activity in SK-MEL-3 Tumor Cells” value (SK-MEL-3 tumor cells) was “+ (activity of >1 μM in SK-MEL-3 tumor cells)”.
For `CC(=O)N1CCN(c2ccc(Nc3nccc(-c4sc(C(C)C)nc4-c4cccc(NS(=O)(=O)c5cn(C)cn5)c4)n3)cn2)CC1` [Example 36], the IC50 (ErbB2) was over 1000 nM, the IC50 (HT-29 tumor cells) was over 1000 nM and the IC50 (SK-MEL-28 tumor cells) was 100 to 1000 nM. For the same compound, the IC50 (SK-MEL-3 tumor cells) was 100 to 1000 nM.
